The target in this assay is MCT1 (Homo sapiens, UniProt P53985). As to the kind of experiment: BCECF fluorescence lactate transport assay in MCT1-expressing BT20 cells. The assay is classed as cell-based.

pIC50: −log10 of the molar value.

Chain of MCT1 (P53985 whole entry): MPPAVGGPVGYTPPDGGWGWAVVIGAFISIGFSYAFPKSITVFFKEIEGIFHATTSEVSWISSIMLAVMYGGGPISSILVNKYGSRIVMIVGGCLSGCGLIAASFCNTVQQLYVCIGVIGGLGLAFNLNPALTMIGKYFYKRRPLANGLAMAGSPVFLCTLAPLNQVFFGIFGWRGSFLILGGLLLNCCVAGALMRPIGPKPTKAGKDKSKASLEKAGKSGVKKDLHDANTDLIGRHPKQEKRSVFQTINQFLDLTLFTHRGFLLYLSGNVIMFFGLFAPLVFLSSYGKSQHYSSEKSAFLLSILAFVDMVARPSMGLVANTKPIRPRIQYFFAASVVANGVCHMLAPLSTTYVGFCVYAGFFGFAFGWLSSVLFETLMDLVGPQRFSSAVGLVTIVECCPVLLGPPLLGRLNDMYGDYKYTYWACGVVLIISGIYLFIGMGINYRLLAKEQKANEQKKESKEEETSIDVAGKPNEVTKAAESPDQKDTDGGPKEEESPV

As a reminder, the pIC50 is the IC50 on a negative log10 scale, so that one unit is a factor of ten. A higher pIC50 goes with a low IC50. Regarding `CC(C)(OCc1cc(-c2cccc(OC3CC3)c2)n(-c2ccccc2Cl)n1)C(=O)O` [VB124, 2-[[1-(2-chlorophenyl)-5-(3-cyclopropoxyphenyl)-1H-pyrazol-3-yl]methoxy]-2-methylpropanoic acid], the pIC50 is 4.62.

(Values after article PMC7933116 (Cell metabolism, 2020).)
